*1 amine or outer side, *2 acyl side, *3 side chain or, on linkers, in order; H or OH if unused. Where a SMILES comes first, the peptide text is derived from it. Side-chain parts run from the residue outwards. [ ]: non-standard residue; d: D form. The star is where a group is joined. C20 diacid = O=C(O)CCCCCCCCCCCCCCCCCCC(=O)*; C18 diacid = O=C(O)CCCCCCCCCCCCCCCCC(=O)*; αMePhe(2-F) = C[C@](N)(Cc1ccccc1F)C(=O)O; γGlu = O=C(O)[C@H](CCC(=O)[*:2])N[*:1]; 4Pal = N[C@@H](Cc1ccncc1)C(=O)O; αMeL = CC(C)C[C@](C)(N)C(=O)O; Orn = NCCC[C@H](N)C(=O)O; AEEA = NCCOCCOCC(=O)O; Aib = CC(C)(N)C(=O)O
These molecules were tested against T1, human GLP-1R (Homo sapiens, UniProt P43220) (assay: [125I]-GLP-1 binding, SPA with WGA beads, 0.1% bacitracin). Conditions: geometric mean, read-out: hGLP1R Ki.
T1 construct: expressed in transfected cells; crude membranes
How it was run: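 Binding buffer was 25 mM HEPES pH 7.4 with 2.5 mM CaCl2, 1 mM MgCl2, 0.1% (w/v) bacitracin, 0.003% Tween-20 and EDTA-free protease inhibitors. Four-parameter regression gave IC50, converted to Ki (geometric mean, SEM, n independent days).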

T1 sequence (P43220 24-463): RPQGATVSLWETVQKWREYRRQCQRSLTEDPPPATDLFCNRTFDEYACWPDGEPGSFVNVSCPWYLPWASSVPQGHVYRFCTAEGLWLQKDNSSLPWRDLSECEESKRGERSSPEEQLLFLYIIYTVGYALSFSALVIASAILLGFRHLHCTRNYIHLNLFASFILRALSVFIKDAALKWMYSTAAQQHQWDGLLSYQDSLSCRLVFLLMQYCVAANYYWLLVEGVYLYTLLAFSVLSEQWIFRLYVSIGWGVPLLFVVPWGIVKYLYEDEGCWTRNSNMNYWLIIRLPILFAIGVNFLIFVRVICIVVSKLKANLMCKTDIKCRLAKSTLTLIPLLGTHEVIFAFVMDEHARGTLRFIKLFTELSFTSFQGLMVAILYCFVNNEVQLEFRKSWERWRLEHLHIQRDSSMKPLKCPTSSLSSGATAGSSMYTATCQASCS

| Structure (SMILES) | Ki |
| --- | --- |
| CC[C@H](C)[C@H](NC(=O)[C@H](CCCN)NC(=O)[C@H](CC(=O)O)NC(=O)[C@H](CC(C)C)NC(=O)[C@](C)(CC(C)C)NC(=O)[C@@H](NC(=O)[C@H](CO)NC(=O)[C@H](Cc1ccc(O)cc1)NC(=O)[C@H](CC(=O)O)NC(=O)[C@H](CO)NC(=O)[C@@H](NC(=O)[C@H](Cc1ccccc1)NC(=O)[C@@H](NC(=O)CNC(=O)[C@H](CCC(=O)O)NC(=O)C(C)(C)NC(=O)[C@@H](N)Cc1ccc(O)cc1)[C@@H](C)O)[C@@H](C)CC)[C@@H](C)CC)C(=O)N[C@@H](Cc1c[nH]cn1)C(=O)N[C@@H](CCC(N)=O)C(=O)NC(C)(C)C(=O)N[C@@H](CC(=O)O)C(=O)N[C@@H](Cc1ccccc1)C(=O)N[C@H](C(=O)N[C@@H](CCC(=O)O)C(=O)N[C@@H](Cc1ccncc1)C(=O)N[C@@H](CCCCNC(=O)COCCOCCNC(=O)COCCOCCNC(=O)CC[C@H](NC(=O)CCCCCCCCCCCCCCCCC(=O)O)C(=O)O)C(=O)N[C@@H](CC(C)C)C(=O)N[C@@H](CCC(=O)O)C(=O)NCC(=O)NCC(=O)N1CCC[C@H]1C(=O)N[C@@H](CO)C(=O)N[C@@H](CO)C(=O)NCC(=O)N[C@@H](C)C(=O)N1CCC[C@H]1C(=O)N1CCC[C@H]1C(=O)N1CCC[C@H]1C(=O)N[C@@H](CO)C(N)=O)C(C)C [Example 111] (H-Y[Aib]EGTFISDYSI[αMeL]LD[Orn]IHQ[Aib]DFVE[4Pal]K([AEEA-AEEA-γGlu-C18 diacid])LEGGPSSGAPPPS-NH2) | > 908 nM |
| CC[C@H](C)[C@H](NC(=O)[C@H](CO)NC(=O)[C@H](Cc1ccc(O)cc1)NC(=O)[C@H](CC(=O)O)NC(=O)[C@H](CO)NC(=O)[C@@H](NC(=O)[C@](C)(Cc1ccccc1F)NC(=O)[C@@H](NC(=O)CNC(=O)[C@H](CCC(=O)O)NC(=O)C(C)(C)NC(=O)[C@@H](N)Cc1ccc(O)cc1)[C@@H](C)O)[C@@H](C)CC)C(=O)N[C@@H](C)C(=O)N[C@@H](CC(C)C)C(=O)N[C@@H](CC(=O)O)C(=O)N[C@@H](CCCCN)C(=O)N[C@H](C(=O)N[C@@H](Cc1c[nH]cn1)C(=O)N[C@@H](CCC(N)=O)C(=O)NC(C)(C)C(=O)N[C@@H](CCC(=O)O)C(=O)N[C@@H](Cc1ccccc1)C(=O)N[C@H](C(=O)N[C@@H](CC(N)=O)C(=O)N[C@@H](Cc1ccc(O)cc1)C(=O)N[C@@H](CCCCNC(=O)COCCOCCNC(=O)COCCOCCNC(=O)CC[C@H](NC(=O)CCCCCCCCCCCCCCCCC(=O)O)C(=O)O)C(=O)N[C@@H](CC(C)C)C(=O)N[C@@H](C)C(=O)NCC(=O)NCC(=O)N1CCC[C@H]1C(=O)N[C@@H](CO)C(=O)N[C@@H](CO)C(=O)NCC(=O)N[C@@H](C)C(=O)N1CCC[C@H]1C(=O)N1CCC[C@H]1C(=O)N1CCC[C@H]1C(=O)N[C@@H](CO)C(N)=O)C(C)C)[C@@H](C)CC [Example 94] (H-Y[Aib]EGT[αMePhe(2-F)]ISDYSIALDKIHQ[Aib]EFVNYK([AEEA-AEEA-γGlu-C18 diacid])LAGGPSSGAPPPS-NH2) | > 909 nM |
| CC[C@H](C)[C@H](NC(=O)[C@H](CCCCN)NC(=O)[C@H](CC(=O)O)NC(=O)[C@H](CC(C)C)NC(=O)[C@](C)(CC(C)C)NC(=O)[C@@H](NC(=O)[C@H](CO)NC(=O)[C@H](Cc1ccc(O)cc1)NC(=O)[C@H](CC(=O)O)NC(=O)[C@H](CO)NC(=O)[C@@H](NC(=O)[C@H](Cc1ccccc1)NC(=O)[C@@H](NC(=O)CNC(=O)[C@H](CCC(=O)O)NC(=O)C(C)(C)NC(=O)[C@@H](N)Cc1ccc(O)cc1)[C@@H](C)O)[C@@H](C)CC)[C@@H](C)CC)C(=O)N[C@@H](Cc1c[nH]cn1)C(=O)N[C@@H](CCC(N)=O)C(=O)NC(C)(C)C(=O)N[C@@H](CCC(=O)O)C(=O)N[C@@H](Cc1ccccc1)C(=O)N[C@H](C(=O)N[C@@H](CCC(=O)O)C(=O)N[C@@H](Cc1ccncc1)C(=O)N[C@@H](CCCCNC(=O)COCCOCCNC(=O)COCCOCCNC(=O)CC[C@H](NC(=O)CCCCCCCCCCCCCCCCCCC(=O)O)C(=O)O)C(=O)N[C@@H](CC(C)C)C(=O)N[C@@H](CCC(=O)O)C(=O)NCC(=O)NCC(=O)N1CCC[C@H]1C(=O)N[C@@H](CO)C(=O)N[C@@H](CO)C(=O)NCC(=O)N[C@@H](C)C(=O)N1CCC[C@H]1C(=O)N1CCC[C@H]1C(=O)N1CCC[C@H]1C(=O)N[C@@H](CO)C(N)=O)C(C)C [Example 100] (H-Y[Aib]EGTFISDYSI[αMeL]LDKIHQ[Aib]EFVE[4Pal]K([AEEA-AEEA-γGlu-C20 diacid])LEGGPSSGAPPPS-NH2) | > 913 nM |
| CC[C@H](C)[C@H](NC(=O)[C@H](CCCN)NC(=O)[C@H](CC(=O)O)NC(=O)[C@H](CC(C)C)NC(=O)[C@](C)(CC(C)C)NC(=O)[C@@H](NC(=O)[C@H](CO)NC(=O)[C@H](Cc1ccc(O)cc1)NC(=O)[C@H](CC(=O)O)NC(=O)[C@H](CO)NC(=O)[C@@H](NC(=O)[C@H](Cc1ccccc1)NC(=O)[C@@H](NC(=O)CNC(=O)[C@H](CCC(=O)O)NC(=O)C(C)(C)NC(=O)[C@@H](N)Cc1ccc(O)cc1)[C@@H](C)O)[C@@H](C)CC)[C@@H](C)CC)C(=O)N[C@@H](Cc1c[nH]cn1)C(=O)N[C@@H](CCC(N)=O)C(=O)NC(C)(C)C(=O)N[C@@H](CCC(=O)O)C(=O)N[C@@H](Cc1ccccc1)C(=O)N[C@H](C(=O)N[C@@H](CCC(=O)O)C(=O)N[C@@H](Cc1ccc(O)cc1)C(=O)N[C@@H](CCCCNC(=O)COCCOCCNC(=O)COCCOCCNC(=O)CC[C@H](NC(=O)CCCCCCCCCCCCCCCCCCC(=O)O)C(=O)O)C(=O)N[C@@H](CC(C)C)C(=O)N[C@@H](CCC(=O)O)C(=O)N[C@@H](C)C(=O)NCC(=O)N1CCC[C@H]1C(=O)N[C@@H](CO)C(=O)N[C@@H](CO)C(=O)NCC(=O)N[C@@H](C)C(=O)N1CCC[C@H]1C(=O)N1CCC[C@H]1C(=O)N1CCC[C@H]1C(=O)N[C@@H](CO)C(N)=O)C(C)C [Example 104] (H-Y[Aib]EGTFISDYSI[αMeL]LD[Orn]IHQ[Aib]EFVEYK([AEEA-AEEA-γGlu-C20 diacid])LEAGPSSGAPPPS-NH2) | > 910 nM |
| CC[C@H](C)[C@H](NC(=O)[C@H](CO)NC(=O)[C@H](Cc1ccc(O)cc1)NC(=O)[C@H](CC(=O)O)NC(=O)[C@H](CO)NC(=O)[C@@H](NC(=O)[C@](C)(Cc1ccccc1F)NC(=O)[C@@H](NC(=O)CNC(=O)[C@H](CCC(=O)O)NC(=O)C(C)(C)NC(=O)[C@@H](N)Cc1ccc(O)cc1)[C@@H](C)O)[C@@H](C)CC)C(=O)N[C@@H](C)C(=O)N[C@@H](CC(C)C)C(=O)N[C@@H](CC(=O)O)C(=O)N[C@@H](CCCCN)C(=O)N[C@H](C(=O)N[C@@H](Cc1c[nH]cn1)C(=O)N[C@@H](CCC(N)=O)C(=O)NC(C)(C)C(=O)N[C@@H](CCC(=O)O)C(=O)N[C@@H](Cc1ccccc1)C(=O)N[C@H](C(=O)N[C@@H](CC(N)=O)C(=O)N[C@@H](Cc1ccc(O)cc1)C(=O)N[C@@H](CCCCNC(=O)COCCOCCNC(=O)COCCOCCNC(=O)CC[C@H](NC(=O)CCCCCCCCCCCCCCCCCCC(=O)O)C(=O)O)C(=O)N[C@@H](CC(C)C)C(=O)N[C@@H](CCC(=O)O)C(=O)NCC(=O)NCC(=O)N1CCC[C@H]1C(=O)N[C@@H](CO)C(=O)N[C@@H](CO)C(=O)NCC(=O)N[C@@H](C)C(=O)N1CCC[C@H]1C(=O)N1CCC[C@H]1C(=O)N1CCC[C@H]1C(=O)N[C@@H](CO)C(N)=O)C(C)C)[C@@H](C)CC [Example 95] (H-Y[Aib]EGT[αMePhe(2-F)]ISDYSIALDKIHQ[Aib]EFVNYK([AEEA-AEEA-γGlu-C20 diacid])LEGGPSSGAPPPS-NH2) | 832 nM |

Source: patent US12723063B2, “GIPR-agonist compounds” (Eli Lilly and Company, priority 2019, dated 2026)
